Assay results taken from patent US9873693B2 (Sunesis Pharmaceuticals, Inc., priority 2006, dated 2018).
Read-outs that look alike come from different tables or passages of the source.

Legend:
dephosphorylated PDK1 = dephosphorylated PDK1 (Homo sapiens (Human), UniProt O15530); test: PDK1 kinase assay (coupled PDK1/AKT/FAM-crosstide, IMAP); type: biochemical; settings: 25 nM un-phosphorylated PDK1, 24 μM ATP; read-out: Inhibition of dephospo-PDK1 in vitro IC50
Procedure: A PDK1 kinase assay was performed as follows. PDK1 (amino acids 51-360) and AKT2 (amino acids 140-467 fused to PIFtide, amino acids […]) were expressed as N-terminally tagged GST fusion proteins in insect cells and purified to greater than 90% homogeneity. PDK1 protein was divided into two fractions, one of which was subsequently dephosphorylated. To generate dephosphorylated PDK1, the PDK1 was reacted with GST-tagged lambda-phosphatase in vitro. GST was subsequently cleaved proteolytically for both phosphorylated and dephosphorylated PDK1. Protein preparations were run on glutathione Sepharose columns to remove GST and GST-tagged lambda-phosphatase, if present. Phosphorylated PDK1 and dephosphorylated PDK1 were verified by mass-spectrometry. Enzyme activity was determined in a coupled PDK1/AKT/FAM-crosstide assay using either phosphorylated or unphosphorylated PDK1 and phosphorylation of FAM-crosstide was determined by standard IMAP protocol (Molecular Devices). For inhibition studies, compounds were titrated 3-fold in DMSO and diluted 40-fold into assay buffer (10 mM Tris HCl pH7.2; 10 mM MgCl2; 0.01% Triton X-100; 1 mM DTT) containing PDK1, AKT2, and FAM-crosstide. (final concentrations: 25 nM un-phosphorylated PDK1 or 0.5 nM phosphorylated PDK1, 30 nM unphosphorylated AKT2, and 100 nM crosstide substrate). The kinase reaction was initiated by adding ATP to a final concentration of 24 μM for both forms of PDK1 and incubated at 25° C. for 30 min. To detect assay product, the kinase reaction was combined with Progressive Binding Solution (1:600 Progressive Binding Reagent, 50% Buffer A, 50% Buffer B, Molecular Devices) in a 1:3 ratio. The mixture was incubated for 2 hours at 25° C. and the plate was scanned on an Analyst AD with excitation at 485 nm and emission at 530 nm. The fluorescence polarization value “P” is defined by the equation below. The value “mP” is generated by multiplying the P value for each reaction well by a factor of 1000. The value “ΔmP” for each well is the mP value for that well minus the mP value for the average negative control. P=(Fpar−Fperp)/(Fpar+Fperp) Eq.:
Where “par” is fluorescence intensity parallel to the excitation plane; and “perp” is fluorescence intensity perpendicular to the excitation plane. ΔmP values were plotted as a function of compound concentration and the data were analyzed with a 4-parameter fit using GraphPad Prism software.

phospho-akt (Thr308) = phospho-akt (Thr308) MSD ELISA in PC-3 cells; type: cell-based; settings: Homo sapiens; for EC50: PC-3, 2 h; for inhibition at 1 µM / inhibition at 10 µM: read-out: Percent Inhibition of phospho-Akt (308) By MSD ELISA
Procedure, shortened: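 PC-3 cells plated overnight in 10% FBS medium, then treated with three-fold serial compound dilutions in serum-free medium; DMSO-only wells as high control. Lysates captured on BSA-blocked MSD plates overnight at 4 degrees, detection antibody 1 hr RT, electrochemiluminescence read on MSD reader.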

phosphorylated PDK1 = phosphorylated PDK1 (Homo sapiens (Human), UniProt O15530); test: PDK1 kinase assay (coupled PDK1/AKT/FAM-crosstide, IMAP); type: biochemical; settings: 0.5 nM phosphorylated PDK1, 24 μM ATP; read-out: Inhibition of phospo-PDK1 in vitro IC50
Chain of phosphorylated PDK1 (O15530 51-360): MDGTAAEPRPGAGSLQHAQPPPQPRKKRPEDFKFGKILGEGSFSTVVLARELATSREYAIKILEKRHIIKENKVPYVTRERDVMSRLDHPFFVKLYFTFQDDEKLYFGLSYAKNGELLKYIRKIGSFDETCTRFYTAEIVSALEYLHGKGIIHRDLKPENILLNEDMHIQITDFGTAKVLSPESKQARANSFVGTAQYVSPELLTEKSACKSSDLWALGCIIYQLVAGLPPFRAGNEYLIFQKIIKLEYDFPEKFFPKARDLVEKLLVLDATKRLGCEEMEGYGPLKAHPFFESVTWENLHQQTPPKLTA

[1] = PC-3 cells, 2 hours, no serum, read-out: Inhibition of P308 Akt in cells using MSD EC50
[2] = PC-3 cells, 2 hours, no serum, read-out: Reduction of Cellular Levels of Akt p308 By MSD ELISA (EC50 μM)
[3] = read-out: Reduction of Cellular Levels of Akt p308 By MSD ELISA (EC50 μM)

Chain of dephosphorylated PDK1 (O15530 51-360): as above

| Compound | IC50 (dephosphorylated PDK1) [nM] | EC50 (phospho-akt (Thr308); [1]) [µM] | IC50 (phosphorylated PDK1) [nM] | inhibition at 1 µM (phospho-akt (Thr308); PC-3 cells) [%] | inhibition at 10 µM (phospho-akt (Thr308); PC-3 cells) [%] | EC50 (phospho-akt (Thr308); [2]) [µM] | EC50 (phospho-akt (Thr308); [3]) [µM] | EC50 (phospho-akt (Thr308); read-out: Inhibition of P308 Akt in cells using MSD EC50) [µM] |
| --- | --- | --- | --- | --- | --- | --- | --- | --- |
| O=C(NCCOc1ccc2cc[nH]c2c1)c1cccn(Cc2ccc(F)c(F)c2)c1=O [Cpd 179] | 500 to 10000 | > 5 | 500 to 10000 | – | – | – | – | – |
| O=C(NCc1cccc(-c2ccc(=O)[nH]c2)c1)c1cccn(Cc2ccc(F)c(F)c2)c1=O [Cpd 220] | 500 to 10000 | – | 500 to 10000 | 25 to 75 | 25 to 75 | – | – | – |
| O=C(NCc1cnc(-c2c[nH]c3ncccc23)s1)c1cccn(Cc2ccc(Cl)c(Cl)c2)c1=O [Cpd 323] | < 500 | 1 to 5 | < 500 | – | – | 1 to 5 | – | – |
| O=C(NCc1csc(-c2c[nH]c3ncccc23)n1)c1cccn(Cc2ccc(F)c(F)c2)c1=O [Cpd 121] | < 500 | < 1 | < 500 | – | – | – | – | – |
| CN(C)C(=O)C[C@@H](NC(=O)c1cccn(Cc2ccc(F)c(F)c2)c1=O)c1ccc(-c2c[nH]c3ncccc23)s1 [Cpd 237] | < 500 | > 5 | < 500 | < 25 | 25 to 75 | – | – | – |
| O=C(NCc1noc(-c2c[nH]c3ncccc23)n1)c1cc(Cl)cn(Cc2ccc(Cl)c(F)c2)c1=O [Cpd 316] | < 500 | – | < 500 | 25 to 75 | 25 to 75 | – | – | – |
| CC(C)n1c(=O)[nH]c2cc(OCCNC(=O)c3cccn(Cc4ccc(F)c(F)c4)c3=O)ccc21 [Cpd 280] | < 500 | > 5 | < 500 | 25 to 75 | 25 to 75 | – | – | – |
| O=C(N[C@H]1CC[C@@H](c2c[nH]c3ncccc32)CC1)c1cccn(Cc2ccc(F)c(F)c2)c1=O [Cpd 1] | < 500 | > 5 | < 500 | – | – | > 5 | – | – |
| O=C(O)C[C@@H](NC(=O)c1cccn(Cc2ccc(F)c(F)c2)c1=O)c1ccc(-c2c[nH]c3ncccc23)s1 [Cpd 15] | < 500 | – | < 500 | – | – | – | > 5 | – |
| NC(=O)C(NC(=O)c1cccn(Cc2ccc(F)c(F)c2)c1=O)c1ccc(-c2c[nH]c3ncccc23)s1 (centres unmarked) [Cpd 24] | < 500 | – | < 500 | – | – | – | 1 to 5 | 1 to 5 |
| CNc1nc(-c2cccc(CNC(=O)c3cccn(Cc4ccc(F)c(F)c4)c3=O)c2)cn2ccnc12 [Cpd 326] | 500 to 10000 | > 5 | 500 to 10000 | – | – | – | – | – |
| O=C(NCc1ccc(-c2c[nH]c3ncc(Cl)cc23)s1)c1cccn(Cc2ccc(F)c(F)c2)c1=O [Cpd 23] | < 500 | > 5 | < 500 | – | – | > 5 | – | – |
| O=C1Cc2ccc(/C=C/CNC(=O)c3cccn(Cc4cc(F)c(F)c(F)c4)c3=O)cc2N1 [Cpd 166] | < 500 | > 5 | < 500 | – | – | – | – | – |
| O=C(N[C@H](CCCO)c1nc(-c2c[nH]c3ncccc23)c[nH]1)c1cccn(Cc2ccc(F)c(F)c2)c1=O [Cpd 313] | < 500 | – | < 500 | 25 to 75 | 25 to 75 | – | – | – |
| O=C(NCCOc1ccc2c(c1)[nH]c(=O)n2C1CC1)c1cccn(Cc2ccc(F)c(F)c2)c1=O [Cpd 282] | < 500 | > 5 | < 500 | < 25 | 25 to 75 | – | – | – |
| O=C(NCc1noc(-c2c[nH]c3ncccc23)n1)c1cccn(Cc2cc(F)cc(F)c2)c1=O [Cpd 150] | < 500 | > 5 | < 500 | – | – | – | – | – |
| NC(=O)CC[C@@H](NC(=O)c1cccn(Cc2ccc(F)c(F)c2)c1=O)c1nc(-c2c[nH]c3ncccc23)cs1 [Cpd 318] | < 500 | – | < 500 | < 25 | 25 to 75 | – | – | – |
| O=C(N[C@H](COc1ccc2[nH]c(=O)[nH]c2c1)c1ccc(F)cc1)c1cccn(Cc2ccc(C(F)(F)F)cc2)c1=O [Cpd 148] | < 500 | 1 to 5 | < 500 | – | – | 1 to 5 | – | – |
| O=C(NCc1noc(-c2ccc3ncnn3c2)n1)c1cccn(Cc2ccc(F)c(F)c2)c1=O [Cpd 235] | < 500 | – | 500 to 10000 | – | – | > 5 | – | – |

| Compound | IC50 (dephosphorylated PDK1) [nM] | EC50 (phospho-akt (Thr308); [1]) [µM] | IC50 (phosphorylated PDK1) [nM] | inhibition at 1 µM (phospho-akt (Thr308); PC-3 cells) [%] | inhibition at 10 µM (phospho-akt (Thr308); PC-3 cells) [%] | EC50 (phospho-akt (Thr308); [2]) [µM] | EC50 (phospho-akt (Thr308); [3]) [µM] | EC50 (phospho-akt (Thr308); read-out: Inhibition of P308 Akt in cells using MSD EC50) [µM] |
| --- | --- | --- | --- | --- | --- | --- | --- | --- |
| O=C(NCCOc1cc2[nH]c(=O)[nH]c2cn1)c1cccn(Cc2ccc(F)c(F)c2)c1=O [Cpd 279] | < 500 | – | < 500 | – | – | > 5 | – | – |
| CNc1nc(-c2ccc(CNC(=O)c3cccn(Cc4ccc(F)c(F)c4)c3=O)s2)cn2ccnc12 [Cpd 325] | < 500 | > 5 | 500 to 10000 | – | – | – | – | – |
| CCC[C@H](COc1ccc2[nH]c(=O)[nH]c2c1)NC(=O)c1cccn(Cc2ccc(F)c(F)c2)c1=O [Cpd 322] | < 500 | 1 to 5 | < 500 | – | – | 1 to 5 | – | – |
| O=C(NCc1ccc(-c2cccc3[nH]ncc23)s1)c1cccn(Cc2ccc(F)c(F)c2)c1=O [Cpd 58] | < 500 | 1 to 5 | < 500 | – | – | – | – | – |
| O=C(NCc1noc(-c2c[nH]c3ncccc23)n1)c1cccn(Cc2ccc(C(F)(F)F)c(F)c2)c1=O [Cpd 141] | < 500 | 1 to 5 | < 500 | – | – | 1 to 5 | – | – |
| O=C(NCc1cccc(-c2ccc3[nH]ncc3c2)c1)c1cccn(Cc2ccc(F)c(F)c2)c1=O [Cpd 213] | < 500 | – | < 500 | – | – | 1 to 5 | – | – |
| Cc1ccc(Cn2cccc(C(=O)NCc3noc(-c4c[nH]c5ncccc45)n3)c2=O)cc1Cl [Cpd 317] | < 500 | > 5 | < 500 | 25 to 75 | > 75 | – | – | – |
| O=C(NCc1ccc(-c2ccc3[nH]ncc3c2)s1)c1cccn(Cc2ccc(F)c(F)c2)c1=O [Cpd 52] | < 500 | 1 to 5 | < 500 | – | – | – | – | – |
| Nc1cc(C(=O)NCc2noc(-c3c[nH]c4ncccc34)n2)c(=O)n(Cc2cc(F)c(F)c(F)c2)c1 [Cpd 187] | < 500 | > 5 | < 500 | – | – | – | – | – |
| CC(C)[C@@H](COc1ccc2[nH]c(=O)[nH]c2c1)NC(=O)c1cccn(Cc2ccc(F)c(F)c2)c1=O [Cpd 320] | < 500 | – | 500 to 10000 | < 25 | 25 to 75 | – | – | – |
| C[C@@H](c1ccc(F)cc1)n1cccc(C(=O)NCc2noc(-c3c[nH]c4ncccc34)n2)c1=O [Cpd 311] | < 500 | – | < 500 | < 25 | > 75 | – | – | – |
| O=C(NCCOc1ccc2[nH]c(=O)[nH]c2c1)c1cccn(Cc2ccc(F)c(F)c2)c1=O [Cpd 113] | < 500 | > 5 | < 500 | – | – | – | – | – |
| O=C(NCCOc1ccc2c(c1)[nH]c(=O)n2CCN1CCCC1)c1cccn(Cc2ccc(F)c(F)c2)c1=O [Cpd 130] | 500 to 10000 | – | 500 to 10000 | – | – | – | – | – |
| O=C(NCc1cccc(-c2ccc3nsnc3c2)c1)c1cccn(Cc2ccc(F)c(F)c2)c1=O [Cpd 218] | 500 to 10000 | – | > 10000 | – | – | – | – | – |
| O=C(NCc1cccc(-c2cc(=O)[nH][nH]2)c1)c1cccn(Cc2ccc(F)c(F)c2)c1=O [Cpd 217] | 500 to 10000 | – | > 10000 | – | – | – | – | – |
| O=C1Cc2ccc(/C=C/CNC(=O)c3cc(I)cn(Cc4cc(F)c(F)c(F)c4)c3=O)cc2N1 [Cpd 178] | < 500 | – | < 500 | – | – | – | – | – |
| Nc1ncnc2[nH]nc(-c3cccc(CNC(=O)c4cccn(Cc5ccc(F)c(F)c5)c4=O)c3)c12 [Cpd 5] | < 500 | – | < 500 | – | – | – | – | – |
| COc1ccnc(NCCCCCNC(=O)c2cccn(Cc3ccc(F)c(F)c3)c2=O)n1 [Cpd 107] | < 500 | – | 500 to 10000 | – | – | – | – | – |
| COc1ccnc(NCCC#CCCNC(=O)c2cccn(Cc3ccc(F)c(F)c3)c2=O)n1 [Cpd 263] | < 500 | – | < 500 | – | – | – | – | – |
